Legend:
[1] = test system: healthy volunteers; assay: Phase I healthy volunteer studies (prednisone challenge); type: in vivo, human; details: for NLR: healthy volunteers with normal cortisol levels
Text: (§1) GR is a broad regulator of immunosuppressive transcriptional programs, so we first assessed the transcriptional effects of prednisone in and/or relacorilant in whole blood. […] These three genes are known to play a role in suppressing the cytotoxic T-cell response.

[2] = test system: EG7 tumor cells; assay: EG7 tumor model in WT mice, αPD1 (RMP1-14) +/- relacorilant; type: in vivo, mouse; details: for TNFα levels in terminal sera: sera collected between days 11 and 21
Procedure: The combination of PD1 antagonist antibody (RMP1-14) and relacorilant was assessed in the EG7 tumor model. Most reports have assessed αPD1 effects on EG7 cells in WT mice without added cortisol, so this more established model was used.
(§2) Methods: Immune cell abundance and GR expression were assessed by IHC and calculated based on The Cancer Genome Atlas (TCGA) data. Human PBMCs were stimulated with αCD3+IL-12 +/- cortisol or cortisol + relacorilant. EG7 tumor-bearing mice were treated with αPD1 (RMP1-14) ip (intraperitoneally) Q5D (every fifth day) +/- daily relacorilant (QD). Whole blood mRNA was measured via Nanostring, hematology was performed using standard complete blood count assays, and cytokines were assessed by immunoassays in study NCT02762981.

[3] = test system: stimulated human PBMC’s; assay: Activation of stimulated human PBMCs (PHA or αCD3+IL-12) +/- cortisol or cortisol + relacorilant; type: cell-based; details: for cytokines and chemokines (including IFNγ, IL-1β, IL-1α, IL-6): PHA or αCD3 stimulation; for cytokines and chemokines (including IFNγ, IL-1β, IL-1α, IL-6) / Expression of CD137 (aka 41-BB) on CD8+ cells: physiological cortisol; for CD3+ cell surface receptors: PHA stimulation; for inflammatory cytokines such as TNF-α: induced by stimulation; for inflammatory cytokines such as TNF-α / Expression of CD137 (aka 41-BB) on CD8+ cells: relacorilant in presence of cortisol; for CD8+ T-cell activation / pro-inflammatory cytokine secretion (TNFα, IFNγ): αCD3+IL-12; for CD8+ T-cell activation: P<0.001; for pro-inflammatory cytokine secretion (TNFα, IFNγ): TNFα P=0.006, IFNγ P<0.05
Procedure: To understand the molecular consequences of GC activity on T-cell activation, the effects of cortisol and relacorilant were assessed on stimulated human PBMC’s. […] Expression of CD137 (aka 41-BB) on CD8+ cells was reduced by cortisol and rescued by relacorilant. […] Expression of CD137 (aka 41-BB) within CD8+ cells was reduced by cortisol and rescued by relacorilant. […] Thus, as shown also in FIG. 4, inflammatory cytokines such as TNF-α were induced by stimulation, suppressed by cortisol, and rescued by relacorilant. […] FIG. 6A and FIG. 6B show, following stimulation by phytohemagglutinin (PHA) (FIG. 6A) or αCD3 (FIG. 6B), suppression of cytokines and chemokines by cortisol and the restoration of cytokine/chemokine levels by relacorilant. (Supernatant IL-12 measurements were excluded from the analysis shown in FIG. 6B since the stimulation included recombinant IL-12.) Physiological levels of cortisol suppressed cytokines and chemokines, and this suppression was reversed by relacorilant.
as §2

[4] = test system: EG7 tumor cells; assay: EG7 syngeneic model in OT-1/Rag-/- mice with cortisol in drinking water
Procedure: The suppressive effects of cortisol on CD8+ cytotoxic T-cells, and the ability of relacorilant to promote T-cell activation, were assessed in the EG7 syngeneic mouse model. EG7 tumor cells express ovalbumin, and the model was studied both in WT or OT-1/Rag^-/- mice. The OT-1/Rag^-/- mice only have T-cells expressing a transgenic ovalbumin-specific TCR. […] The combination of PD1 antagonist antibody (RMP1-14) and relacorilant was assessed in the EG7 tumor model.

[5] = test system: patients with advanced solid tumors; assay: Phase I study of relacorilant+nab-paclitaxel in solid tumor patients (NCT02762981); details: human, in vivo
Procedure: as §1, §2

[6] = molecular target: T1, GR (Homo sapiens, UniProt P04150); assay: GR inverse agonism
T1 sequence (P04150 1-777): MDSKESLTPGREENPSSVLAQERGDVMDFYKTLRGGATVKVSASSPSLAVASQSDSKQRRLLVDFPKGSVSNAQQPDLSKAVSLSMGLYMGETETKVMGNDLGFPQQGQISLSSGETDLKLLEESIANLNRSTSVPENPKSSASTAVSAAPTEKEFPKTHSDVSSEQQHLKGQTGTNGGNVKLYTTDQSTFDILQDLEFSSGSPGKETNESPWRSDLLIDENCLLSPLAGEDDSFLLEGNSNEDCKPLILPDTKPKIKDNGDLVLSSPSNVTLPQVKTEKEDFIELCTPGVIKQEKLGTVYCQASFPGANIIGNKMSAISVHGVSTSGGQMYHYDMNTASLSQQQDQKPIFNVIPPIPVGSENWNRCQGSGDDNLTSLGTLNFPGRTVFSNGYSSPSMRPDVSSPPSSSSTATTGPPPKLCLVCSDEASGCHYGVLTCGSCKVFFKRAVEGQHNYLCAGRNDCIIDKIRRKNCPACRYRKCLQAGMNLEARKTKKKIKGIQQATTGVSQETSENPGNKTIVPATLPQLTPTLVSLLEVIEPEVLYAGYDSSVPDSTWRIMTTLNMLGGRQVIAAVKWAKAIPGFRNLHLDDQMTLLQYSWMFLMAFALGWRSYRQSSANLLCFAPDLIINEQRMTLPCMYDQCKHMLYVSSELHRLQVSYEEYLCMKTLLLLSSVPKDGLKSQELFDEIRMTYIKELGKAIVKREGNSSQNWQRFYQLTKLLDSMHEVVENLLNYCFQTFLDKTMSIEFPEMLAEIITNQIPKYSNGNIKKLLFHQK

[7] = test system: human stimulated PBMCs; assay: Restoration of TNF-α production in stimulated PBMCs suppressed by GR agonists; type: cell-based; details: PBMC, read-out: restoration of TNF-α production, half maximal effect
[8] = test system: patients with Cushing’s disease; assay: Phase II study in patients with Cushing’s disease; type: in vivo, human
[9] = molecular target: T2, progesterone receptor (PR) (Homo sapiens, UniProt P06401); assay: PR binding; details: binding not observed at these concentrations
T2 sequence (P06401 1-933): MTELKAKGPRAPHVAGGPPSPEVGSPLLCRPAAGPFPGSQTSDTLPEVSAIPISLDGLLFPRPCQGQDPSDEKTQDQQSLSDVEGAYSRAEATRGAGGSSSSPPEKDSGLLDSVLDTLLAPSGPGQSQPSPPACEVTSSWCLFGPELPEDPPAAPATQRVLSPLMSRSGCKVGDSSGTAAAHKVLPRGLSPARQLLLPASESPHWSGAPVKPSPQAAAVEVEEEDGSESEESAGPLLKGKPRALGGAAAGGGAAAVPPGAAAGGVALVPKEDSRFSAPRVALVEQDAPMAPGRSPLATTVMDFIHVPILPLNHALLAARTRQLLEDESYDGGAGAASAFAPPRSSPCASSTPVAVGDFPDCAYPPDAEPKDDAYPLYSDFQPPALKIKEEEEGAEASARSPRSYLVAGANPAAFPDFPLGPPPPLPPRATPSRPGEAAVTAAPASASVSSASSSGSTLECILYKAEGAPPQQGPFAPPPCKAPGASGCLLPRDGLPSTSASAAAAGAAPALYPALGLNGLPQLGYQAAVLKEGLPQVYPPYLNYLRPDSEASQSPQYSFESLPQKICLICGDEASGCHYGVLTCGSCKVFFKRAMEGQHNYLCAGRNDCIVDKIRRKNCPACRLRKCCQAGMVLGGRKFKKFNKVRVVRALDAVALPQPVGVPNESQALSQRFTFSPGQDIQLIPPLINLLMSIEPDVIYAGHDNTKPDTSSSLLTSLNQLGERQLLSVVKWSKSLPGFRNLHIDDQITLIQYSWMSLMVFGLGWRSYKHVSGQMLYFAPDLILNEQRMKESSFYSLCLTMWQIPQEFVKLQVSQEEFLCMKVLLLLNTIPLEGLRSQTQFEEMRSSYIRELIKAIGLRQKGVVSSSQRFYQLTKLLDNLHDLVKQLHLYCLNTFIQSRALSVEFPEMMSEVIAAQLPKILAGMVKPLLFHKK

[10] = test system: rat model of corticosterone-induced insulin resistance; assay: Rat model of corticosterone-induced insulin resistance; type: in vivo; details: oral, doses giving systemic exposure similar to phase I studies
[11] = molecular target: T1, GR; assay: GR binding; details: read-out: Half-maximal GR binding
[12] = test system: E.G7-OVA mouse lymphoma cells; assay: Short term (7-day) EG7 pharmacodynamic study in B6 CD45.1 mice; type: in vivo
Procedure: A short term (7-day) EG7 pharmacodynamic study was conducted in female B6 CD45.1 mice to assess the effects of relacorilant+ αPD1 on T-cell proliferation and activation. Spleen and portions of tumor from B6 CD45.1 female mice subcutaneously inoculated with E.G7-OVA mouse lymphoma cells and treated with CORT125134 (30 mg/kg, administered p.o. once daily for 7 days) and RMP1-14 (10 mg/kg, administered i.p. on every fifth day for a total of two doses), alone and in combination, were analyzed via flow cytometry. Unlike the previous study, cell and cytokine analyses were synchronized and occurred before differences in tumor volume were detected (FIG. 14). Thus, in this study, changes in tumor volumes cannot influence the cytokine or T-cell measurements. There were no adverse effects of the treatments on clinical signs or body weight changes.
Antigen specific T-cells are key mediators of the anti-tumor immune response. The EG7 model expresses the model antigen ovalbumin. Antigen specific T-cells can be quantified by measuring T-cells that recognize ovalbumin. Cells which bind T-cells markers (such as anti-CD3 and anti-CD8) and bind labeled ovalbumin tetramers are thus considered antigen specific T-cells. Antigen specific T-cells were increased by the combination of relacorilant + αPD1 in the spleen and tumor (FIG. 15). […]

C[C@]12C=CC(=O)C=C1CC[C@@H]1[C@@H]2C(=O)C[C@@]2(C)[C@H]1CC[C@]2(O)C(=O)CO [prednisone, reference compound]
transcriptional effect in whole blood ([1]; 25 mg dose, 4 hours post dose): large transcriptional effect | NLR [1]: rapid an acute increase

cortisol
tumor growth on excess cortisol administration ([2]; cortisol added to relacorilant treatment): restored tumor growth | tumor control or growth ([2]; cortisol in drinking water of wild type (WT) mice): no effect on tumor control or growth | TNFα levels in terminal sera [2]: suppressed | phenotypic effects of stimulation ([3]; 400 nM cortisol, PHA or αCD3+IL-12): potently suppressed nearly every phenotypic effect of stimulation | cytokines and chemokines (including IFNγ, IL-1β, IL-1α, IL-6) [3]: suppressed | CD3+ cell surface receptors [3]: suppression | inflammatory cytokines such as TNF-α [3]: suppressed | Expression of CD137 (aka 41-BB) on CD8+ cells [3]: reduced | CD8+ T-cell activation [3]: inhibited | pro-inflammatory cytokine secretion (TNFα, IFNγ) [3]: inhibited | mice with measurable tumors by day 10 ([4]; OT-1/Rag-/- mice): All mice | tumor growth ([4]; OT-1/Rag-/- mice): rapid tumor growth | histologically confirmed complete remissions ([4]; OT-1/Rag-/- mice given cortisol +/- relacorilant): none | Premature deaths ([4]; OT-1/Rag-/- mice, 0/5 in controls): 2/5

Cn1cc(S(=O)(=O)N2CCC3=Cc4c(cnn4-c4ccc(F)cc4)C[C@]3(C(=O)c3cc(C(F)(F)F)ccn3)C2)cn1 [relacorilant, (R)-(1-(4-fluorophenyl)-6-((1-methyl-1H-pyrazol-4-yl)sulfonyl)-4,4a,5,6,7,8-hexahydro-1H-pyrazolo[3,4-g]isoquinolin-4a-yl)(4-(trifluoromethyl)pyridin-2-yl)methanone]
circulating IL-10 ([2]; P<0.002): decreased | αPD1 efficacy ([2]; P=0.007): increased | effect on tumor growth ([2]; WT mice without added cortisol): no significant effect | TNFα levels in terminal sera [2]: increased | NLR in cancer patients with elevated baseline NLR [5]: lowers | cytokines and chemokines (including IFNγ, IL-1β, IL-1α, IL-6) [3]: reversed | CD3+ cell surface receptors [3]: restoration | inflammatory cytokines such as TNF-α [3]: rescued | Expression of CD137 (aka 41-BB) on CD8+ cells [3]: rescued | CD8+ T-cell activation [3]: restored | pro-inflammatory cytokine secretion (TNFα, IFNγ) [3]: restored | GR inverse agonism [6]: not observed | EC50 [7]: 9 nM | effects of excess cortisol on hypertension and insulin resistance [8]: demonstrated the ability to reverse | IC50 [9]: > 1000 nM | glucose and insulin [10]: normalized glucose and insulin | IC50 [11]: 0.15 nM | tolerability ([1]; healthy volunteers): demonstrated tolerability | NLR [1]: does not affect NLR | GR agonist induction of FKBP5 mRNA in whole blood ([1]; prednisone challenge): reversed | GR agonist suppression of eosinophil abundance in whole blood ([1]; prednisone challenge): reversed | prednisone-induced increase in the NLR ([1]; relacorilant co-dosed with prednisone): reversed | PD1 expression in splenic CD8 T-cells ([12]; 7 days): sufficient to induce | PD-1+ as % CD8+ cells in spleens ([12]; vs Vehicle Control): significant (p≤0.05) increase
